In the assay the target is T1, NS3 (West Nile virus, UniProt K4FQI5).
T1 sequence (K4FQI5 whole entry): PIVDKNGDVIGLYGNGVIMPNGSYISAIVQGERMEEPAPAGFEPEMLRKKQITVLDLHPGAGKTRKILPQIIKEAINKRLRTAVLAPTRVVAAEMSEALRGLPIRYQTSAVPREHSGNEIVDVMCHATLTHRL
Description: Functional biochemical assay to identify treatments for viral infectious disease that targets West Nile NS2B-NS3 protease. Utilizing a direct enzyme activity measurement method, reading the fluorescence intensity is used to characterize the relative potency of inhibitors as IC50. Set-up: species or system NY-99.
As a reminder, the IC50 is the midpoint of a concentration-inhibition curve. A higher IC50 goes with weaker potency. As for `O=C(Nc1ccc2c(c1)CNC2)c1ccc2c(C3=CCNCC3)csc2c1`, the IC50 worked out at 7.5 µM.

In turn, `CS(=O)(=O)c1cc2c(cc1NC(=O)c1cc(F)cc3[nH]ncc13)CNC2` came in with an IC50 of 2.51 µM.

On to `O=C(Nc1ccccc1)OCc1ccccc1` [BENZYL PHENYLCARBAMATE], for which the IC50 was more than 100 µM.

`O=C(Nc1ccccc1)Oc1ccccc1` [PHENYL PHENYLCARBAMATE]: the IC50 is more than 100 µM.

The values above are taken from ChEMBL document CHEMBL5604061, “ASAP - WNV NS2B-NS3 protease fluorescence dose response” (2024).
